Measured values taken from ChEMBL document CHEMBL1144557, “The novel C-5 aryl, alkenyl, and alkynyl substituted uracil derivatives of L-ascorbic acid: synthesis, cytostatic, and antiviral activity evaluations” (Bioorg Med Chem, 2007).
In brackets after ≈: the same amount, converted by molar mass.

System: Vaccinia virus
Experiment: Antiviral activity against Vaccinia virus-induced cytopathogenicity in HEL cells
Type: functional
Settings: Orthopoxvirus vaccinia

Row | SMILES | MIC [µM]
1 | C=Cc1cn(C/C=C2\OC(=O)C(OCc3ccccc3)=C2OCc2ccccc2)c(=O)[nH]c1=O | > 18
2 | O=C1O/C(=C\Cn2cc(C#Cc3ccccc3)c(=O)[nH]c2=O)C(O)=C1O | 4 (≈ 1.41 µg/mL)
3 | C#Cc1cn(C/C=C2\OC(=O)C(O)=C2O)c(=O)[nH]c1=O | 4 (≈ 1.1 µg/mL)
4 | O=C1O/C(=C\Cn2cc(-c3ccco3)c(=O)[nH]c2=O)C(O)=C1O | > 100
5 | C#Cc1cn(C/C=C2\OC(=O)C(OCc3ccccc3)=C2OCc2ccccc2)c(=O)[nH]c1=O | > 18
6 | O=C1O/C(=C\Cn2cc(-c3ccccc3)c(=O)[nH]c2=O)C(O)=C1O | > 100
7 | CC(C)=CCc1cn(C/C=C2\OC(=O)C(OCc3ccccc3)=C2OCc2ccccc2)c(=O)[nH]c1=O | 4 (≈ 2 µg/mL)
8 | O=C1O/C(=C\Cn2cc(-c3cccs3)c(=O)[nH]c2=O)C(O)=C1O | > 100

System: Vaccinia virus
Experiment: Antiviral activity against Vaccinia virus-induced cytopathogenicity in E6SM cells
Type: functional
Settings: Orthopoxvirus vaccinia

Row | SMILES | MIC [µM]
9 | O=C1O/C(=C\Cn2cc(-c3ccccc3)c(=O)[nH]c2=O)C(OCc2ccccc2)=C1OCc1ccccc1 | 95 (≈ 48.3 µg/mL)
10 | O=C1O/C(=C(\Br)Cn2c(Br)c(/C=C/Br)c(=O)[nH]c2=O)C(OCc2ccccc2)=C1OCc1ccccc1 | > 116
11 | CC#Cc1cn(C/C=C2\OC(=O)C(OCc3ccccc3)=C2OCc2ccccc2)c(=O)[nH]c1=O | > 0.4
12 | O=C1O/C(=C\Cn2cc(-c3cccs3)c(=O)[nH]c2=O)C(OCc2ccccc2)=C1OCc1ccccc1 | > 156
13 | O=C1O/C(=C\Cn2cc(-c3ccc(Cl)o3)c(=O)[nH]c2=O)C(OCc2ccccc2)=C1OCc1ccccc1 | > 150
14 | C=Cc1cn(C/C=C2\OC(=O)C(O)=C2O)c(=O)[nH]c1=O | > 144
15 | O=C1O/C(=C\Cn2cc(C#Cc3ccccc3)c(=O)[nH]c2=O)C(OCc2ccccc2)=C1OCc1ccccc1 | > 40
16 | O=C1O/C(=C\Cn2cc(/C=C/Br)c(=O)[nH]c2=O)C(OCc2ccccc2)=C1OCc1ccccc1 | > 150
17 | C=CCc1cn(C/C=C2\OC(=O)C(OCc3ccccc3)=C2OCc2ccccc2)c(=O)[nH]c1=O | > 8
18 | O=C1O/C(=C\Cn2cc(-c3ccco3)c(=O)[nH]c2=O)C(OCc2ccccc2)=C1OCc1ccccc1 | > 6.4
19 | O=C1O/C(=C\Cn2cc(-c3ccc(Br)o3)c(=O)[nH]c2=O)C(OCc2ccccc2)=C1OCc1ccccc1 | > 70
20 | C=C=Cc1cn(C/C=C2\OC(=O)C(OCc3ccccc3)=C2OCc2ccccc2)c(=O)[nH]c1=O | > 8
21 | Nc1nc2c(ncn2COCCO)c(=O)[nH]1 [ACYCLOVIR] | 300 (≈ 67.6 µg/mL)
22 | O=c1[nH]c(=O)n([C@H]2C[C@H](O)[C@@H](CO)O2)cc1/C=C/Br [BRIVUDINE] | 2.4 (≈ 0.8 µg/mL)
23 | Nc1nc2c(ncn2COC(CO)CO)c(=O)[nH]1 [GANCICLOVIR] | 60 (≈ 15.3 µg/mL)
24 | NC(=O)c1ncn([C@@H]2O[C@H](CO)[C@@H](O)[C@H]2O)n1 [RIBAVIRIN] | 100 (≈ 24.4 µg/mL)
